Experimental data: patent US20180312493A1, “Antibiotic Compounds, Pharmaceutical Formulations Thereof And Methods And Uses Therefor” (Simon Fraser University, priority 2015, published 2018)

Key:
[1] = molecular target: T1, MRSA Pyk (Staphylococcus aureus, UniProt Q6GG09); assay: MRSA pyruvate kinase (PK) activity, continuous LDH-coupled assay; format: biochemical, methicillin resistant S. aureus (MRSA252)
T1 construct: made in house; host or cells: E. coli BL-21 (DE3)
Method in brief: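 Activity monitored continuously as absorbance change at 340 nm from NADH oxidation via coupled lactate dehydrogenase, reactions started with 15 nM recombinant His-tagged PK (MRSA or human isoform) and run at 30° C for up to 5 min. Ki derived by varying inhibitor (0-400 nM) and PEP (2-20 mM) at 2 mM ADP; IC50 by four-parameter fitting.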

[2] = tested on: S. aureus ATCC 29123; assay: Thigh infection model in neutropenic mice; format: in vivo, female CD-1 mice; conditions: thigh muscle, 10 mg/kg IV BID (2 and 8 h post-infection), 24 hr post infection
Method: The antimicrobial activity of compounds 23 and 60 against S. aureus ATCC 29123 was tested in vivo using a thigh infection model in neutropenic mice. Briefly, animals (female CD-1 mice, 5 weeks of age) were made neutropenic prior to S. aureus thigh infection by pre-treating with cyclophosphamide (150 mg/kg, IP, −4 and −1 days pre-inoculation). On the inoculation day (day 0), mice were infected with S. aureus at time zero (t=0). Animals were individually monitored for adverse reactions for 30 min post-infection.
Compounds 23 and 60 were prepared for IV administration and for oral administration. Vancomycin was administered as a solution in PBS. The test compounds were administered at 2 and 8 hours post-infection and animals were individually monitored for adverse reactions for 30 min after each injection. All animals were then monitored hourly from 20 hours post infection to the endpoint (t=24 hr post infection). At the indicated timepoint, animals were sacrificed and the injected thigh collected.
Quantitative enumeration of bacterial load was determined by plating serial dilutions from homogenized thigh muscles. The plates were incubated and colony counts were determined. CFU per mL calculated was calculated.

T1 sequence (Q6GG09 whole entry): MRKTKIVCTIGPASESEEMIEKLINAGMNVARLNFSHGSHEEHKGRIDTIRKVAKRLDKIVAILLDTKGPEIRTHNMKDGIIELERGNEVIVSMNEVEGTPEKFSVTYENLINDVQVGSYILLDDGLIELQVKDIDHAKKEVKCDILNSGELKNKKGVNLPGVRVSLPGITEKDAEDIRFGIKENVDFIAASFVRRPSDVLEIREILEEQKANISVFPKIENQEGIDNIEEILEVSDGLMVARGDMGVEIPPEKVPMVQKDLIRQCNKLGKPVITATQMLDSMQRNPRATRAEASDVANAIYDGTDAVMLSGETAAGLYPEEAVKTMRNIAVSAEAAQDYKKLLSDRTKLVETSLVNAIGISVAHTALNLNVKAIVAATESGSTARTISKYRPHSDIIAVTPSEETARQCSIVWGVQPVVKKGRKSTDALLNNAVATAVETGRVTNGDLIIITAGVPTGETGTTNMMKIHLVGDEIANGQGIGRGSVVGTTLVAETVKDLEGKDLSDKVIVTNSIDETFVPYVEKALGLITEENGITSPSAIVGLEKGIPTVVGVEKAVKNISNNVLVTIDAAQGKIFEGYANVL

Compound: C[N+](C)(C)CCON=C(c1c(-c2cc3cc(Cl)ccc3[nH]2)[nH]c2cc(Br)ccc12)C(F)(F)F (racemic) [Compound 221, 2-(((1-(6-Bromo-5′-chloro-1H,1′H-[2,2′-biindol]-3-yl)-2,2,2-trifluoroethylidene)amino)oxy)-N,N,N-trimethylethan-1-aminium Iodide]
- IC50 [1]: < 100 nM

Compound: CN(C)CCOC(=O)c1c(/C=C/c2ccc(Cl)cc2)[nH]c2cc(Br)ccc12 [Compound 60, (E)-2-(Dimethylamino)ethyl 6-bromo-2-(4-chlorostyryl)-1H-indole-3-carboxylate]
- IC50 [1]: < 100 nM
- reduction in CFU [2]: 3 log

Compound: NCCOc1cc2[nH]c(-c3cc4ccc(Br)cc4[nH]3)cc2cc1Cl [Compound 201, 2-((6′-Bromo-5-chloro-1H,1′H-[2,2′-biindol]-6-yl)oxy)ethan-1-amine]
- IC50 [1]: < 100 nM

Compound: NCCNC(=O)c1c(-c2cc3cc(Cl)ccc3[nH]2)[nH]c2cc(Br)ccc12 [Compound 206, N-(2-Aminoethyl)-6-bromo-5′-chloro-1H,1′H-[2,2′-biindole]-3-carboxamide]
- IC50 [1]: < 100 nM
